“And” between values parts separate entries of the source, which are not always exact repeats. Equal values may be shown once.
Columns and labels:
mice = details: subcutaneous administration; only significant at the highest dose tested; cited from earlier work
anaesthetised guinea pig [1] = experiment: EUS EMG activity during normal bladder filling in anaesthetised guinea pig; type: in vivo
From the text: (§1) In order to explore what subtypes of 5-HT receptors may be involved in enhancing the sacral spinal drive to the EUS, the effects of m-CPP (Sigma Aldrich Product number C-5554), MK-212 (Tocris Cat No 0941), YM-348 (WO 01/83487), Ro 60-0175 (Tocris Cat No 1854), WAY-161503 (Tocris Cat No 1801), and Example 1-N in WO 03/000663, which have been reported to be 5-HT2C receptor agonists, were investigated in an anaesthetised guinea pig model specifically designed to measure urethral continence mechanisms and leak point pressure using two paradigms. Firstly the activity of urethral striated musculature in response to increased abdominal pressure and so the pressure required to induce leak and secondly, the response of urethral striated musculature during normal bladder filling so as to maintain continence, as measured by changes in electromyographic activity of this continence maintaining sphincter.
Experiments were performed in adult female guinea pigs, weighing 620-707 g. All animals were initially anaesthetised with halothane (4%), carried in oxygen (3-4L min^−1) and were maintained at an appropriate surgical plane with urethane (25% w/v; 0.5 ml 100 g^−1 body weight). The trachea, a jugular vein and a carotid artery were cannulated for respiratory ventilation, injection of test compound and monitoring of blood pressure, respectively. A midline laporatomy was performed to expose the urinary bladder and a cystometry tube was inserted through a small incision in the dome of the bladder and secured in place. The abdominal wound was closed tightly around the externalised cystometry tube, which, in turn, was connected to an infusion pump and pressure transducer, for filling the bladder and for recording intravesical pressure, respectively. […]
Following a 30 min post surgery stabilisation period, the bladder was filled at a rate of 150 μl min^−1 with physiological saline (room temperature), until initiation of a micturition reflex or leak was observed. […] Additionally, EUS EMG activity and intravesical pressures were recorded throughout bladder filling. […]

anaesthetised guinea pig [2] = experiment: Abdominal weight inducing micturition or leak and EUS EMG activity in anaesthetised guinea pig; type: in vivo; details: for % of Control Abdominal Weight Inducing Micturition or Leak: bladder at 75% of threshold volume
From the text: as §1
Experiments were performed in adult female guinea pigs, weighing 620-707 g. All animals were initially anaesthetised with halothane (4%), carried in oxygen (3-4L min^−1) and were maintained at an appropriate surgical plane with urethane (25% w/v; 0.5 ml 100 g^−1 body weight). The trachea, a jugular vein and a carotid artery were cannulated for respiratory ventilation, injection of test compound and monitoring of blood pressure, respectively. A midline laporatomy was performed to expose the urinary bladder and a cystometry tube was inserted through a small incision in the dome of the bladder and secured in place. The abdominal wound was closed tightly around the externalised cystometry tube, which, in turn, was connected to an infusion pump and pressure transducer, for filling the bladder and for recording intravesical pressure, respectively. Electromyographic (EMG) wire leads were inserted into the EUS striated muscle layer opposed to the dorsal surface of the symphysis pubis.
Following a 30 min post surgery stabilisation period, the bladder was filled at a rate of 150 μl min^−1 with physiological saline (room temperature), until initiation of a micturition reflex or leak was observed. Following micturition or leak, the bladder was drained via the externalised cystometry tube. Bladder filling was repeated at least 3 times in order to establish a mean bladder threshold capacity for initiation of micturition or leak. Additionally, EUS EMG activity and intravesical pressures were recorded throughout bladder filling. Subsequently 1 of 2 protocols was carried out.
1. Once a threshold bladder volume, which induced micturition or leak, was established, 75% of this volume was used for the next stage of the experiment. The bladder was filled (150 μl min^−1) to 75% of threshold volume with physiological saline and, through the use of a specially constructed frame, weights were positioned on the ventral surface of the abdomen of the animal just rostral to the position of the bladder. Starting at 50 g, then 60 g and then at increasing increments of 20 g, weights were placed on the animal's abdomen until micturition/leakage of fluid was observed. EUS EMG activity and intravesical pressure were recorded while weights were applied to the abdomen. The main parameters investigated were minimum abdominal weight required to induce micturition or leak at 75% of bladder threshold volume, and maximum EUS EMG activity at micturition or leak. Test drug or vehicle was injected intravenously immediately after the bladder was filled to 75% of threshold volume, and 60-120 sec before applying the first abdominal weight (50 g).
Agonists were tested at doses between 0.1 and 3.0 mg kg^−1. In addition the effect of the reported 5-HT2C selective antagonist SB 242084 (Sigma, Cat-No: S-8061) (1 mg kg^−1) on agonist-induced effects was investigated in some animals.

[3] = test system: ovariectomised, birth traumatised rats; experiment: Leak point pressure in ovariectomised, birth traumatised female rats; type: in vivo, Sprague Dawley rats
Procedure: In order to evaluate whether the effects of 5-HT2C agonists on urethral function was present in species other than the guinea pig, leak point pressure was measured in the absence and presence of MK-212 in a known model of urethral function in the rat (Lin A. S. et al. (1998) Urology 52:143-51; Sievert K. D. et al. (2001) J Urol. 166, 311-317; Resplande J et al (2002) J Urol. 168, 323-30), namely ovariectomised, birth traumatised rats.
Ovariectomy and simulated birth trauma were carried out on 8 female Sprague Dawley rats as described previously (Lin A. S. et al. (1998) Urology 52:143-51; Sievert K. D. et al. (2001) J Urol. 166, 311-317; Resplande J et al (2002) J Urol. 168, 323-30). Six weeks subsequent to recovery all animals underwent investigation of leak point pressure, initially rats were anaesthetised with halothane (4%), carried in oxygen (3-4L min^−1) and were maintained at an appropriate surgical plane with urethane (25% w/v; 0.5 ml 100 g^−1 body weight). The trachea, a jugular vein and a carotid artery were cannulated for respiratory ventilation, injection of test compound and monitoring of blood pressure, respectively. A midline laporatomy was performed to expose the urinary bladder and a cystometry tube was inserted through a small incision in the dome of the bladder and secured in place. The abdominal wound was closed tightly around the externalised cystometry tube, which, in turn, was connected to an infusion pump and pressure transducer, for filling the bladder and for recording intravesical pressure, respectively. Baseline leak point pressures (LPP) were established by slow elevation of a saline containing bag connected to the bladder and pressure transducer via the cystometry tube. LPP was defined as the bladder pressure at the point where fluid was first noted at the urethral meatus. Between 4 and 7 baseline readings were made before iv bolus administration of MK-212 (0.1 mg kg^−1). Following a 2 min delay to allow for distribution LPP measurements were repeated in an identical manner to that described above, between 3 and 8 measures were taken.

[4] = 0.3 mg kg^-1, filling 150 μl min^-1, FIG. 1b
[5] = 0.1 mg/kg iv bolus, individual animals 1-8

FC(F)(F)c1ccc(N2CCNCC2)nc1Cl [Org-12962, 1-[6-chloro-5-(trifluoromethyl)-2-pyridinyl]piperazine]
urine wet spot size (mice): reduce urine wet spot size

O=C1Nc2cc(Cl)c(Cl)cc2N2CCNCC12 (stereo not shown) [Way 161503]
EUS EMG activity during normal bladder filling (anaesthetised guinea pig [1]; [4]): potentiated | bladder volume at which EUS EMG activity increases (anaesthetised guinea pig [1]; [4]): increases in activity occurred at lower bladder volumes than in drug free conditions

Clc1cccc(N2CCNCC2)c1 [m-CPP, m-chlorophenylpiperazine]
% of Control EUS EMG Activity (anaesthetised guinea pig [2]; 0.3 mg kg^-1 iv.): 110 ± 43 % of Control | % of Control Abdominal Weight Inducing Micturition or Leak (anaesthetised guinea pig [2]; 0.3 mg kg^-1 iv.): 128 ± 6 % of Control | % of Control EUS EMG Activity (anaesthetised guinea pig [2]; 1.0 mg kg^-1 iv.): 135 ± 10 % of Control | % of Control Abdominal Weight Inducing Micturition or Leak (anaesthetised guinea pig [2]; 1.0 mg kg^-1 iv.): 139 ± 12 % of Control | increase in EUS EMG activity compared with controls (anaesthetised guinea pig [2]; 3.0 mg kg^-1): 56% | increase of the weight required to induce micturition or leak compared with controls (anaesthetised guinea pig [2]; 3.0 mg kg^-1): 66% | % of Control EUS EMG Activity (anaesthetised guinea pig [2]; 3.0 mg kg^-1 iv.): 156 ± 18 % of Control | % of Control Abdominal Weight Inducing Micturition or Leak (anaesthetised guinea pig [2]; 3.0 mg kg^-1 iv.): 166 ± 9 % of Control

Clc1cncc(N2CCNCC2)n1 [MK-212]
animals in which LPP pressure increased ([3]; 0.1 mg kg^-1): 7 of 8 | mean increase in LPP (mean ± standard deviation) ([3]; 0.1 mg kg^-1, N=7): 7.1±2.6 mmHg | Increase in LPP over baseline [3, 5]: 10.2 mmHg and 5.5 mmHg and 7.0 mmHg and 0.4 mmHg and 3.6 mmHg and 6.0 mmHg and 10.9 mmHg and 6.7 mmHg | LPP (mean ± SD) after MK-212 [3, 5]: 30.6 (3.8) mmHg and 23.4 (3.4) mmHg and 21.8 (1.7) mmHg and 18.2 (1.5) mmHg and 27.6 (1.5) mmHg and 30.7 (1.2) mmHg and 33.5 (1.6) mmHg and 23.0 (2.6) mmHg

Cc1cc2c(cc1Cl)N(C(=O)Nc1ccc(Oc3cccnc3C)nc1)CC2 [SB 242084]
effect of antagonist on agonist-induced effects (anaesthetised guinea pig [1]; 1 mg kg^-1, in those animals tested): abolished the effects of applied 5HT2c agonists

Source: patent US20040235856A1, “Treatment of incontinence” (Pfizer Inc, priority 2003, published 2004)
